Assays:
Experiment in all cases: biochemical
Conditions in all cases: read-out: % inhibition mean (Z'Lyte)
[1] = target: PDGFRA T674I (Homo sapiens, UniProt P16234, T674I)
[2] = target: EGFR (ErbB1) (Homo sapiens, UniProt P00533)
[3] = target: PRKD2 (PKD2) (Homo sapiens, UniProt Q9BZL6)
[4] = target: NIM1K (Homo sapiens, UniProt Q8IY84)
[5] = target: ROCK1 (Homo sapiens, UniProt Q13464)
[6] = target: ERBB4 (HER4) (Homo sapiens, UniProt Q15303)
[7] = target: ROCK2 (Homo sapiens, UniProt O75116)
[8] = target: PRKCE (PKC epsilon) (Homo sapiens, UniProt Q02156)
[9] = target: SNF1LK2 (Homo sapiens, UniProt Q9H0K1)
[10] = target: FGFR3 V555M (Homo sapiens, UniProt P22607, V555M)
[11] = target: RPS6KA3 (RSK2) (Homo sapiens, UniProt P51812)
[12] = target: FER (Homo sapiens, UniProt P16591)
[13] = target: RPS6KA4 (MSK2) (Homo sapiens, UniProt O75676)
[14] = target: MAPKAPK5 (PRAK) (Homo sapiens, UniProt Q8IW41)
MAPKAPK5 (PRAK), sequence (Q8IW41 whole entry): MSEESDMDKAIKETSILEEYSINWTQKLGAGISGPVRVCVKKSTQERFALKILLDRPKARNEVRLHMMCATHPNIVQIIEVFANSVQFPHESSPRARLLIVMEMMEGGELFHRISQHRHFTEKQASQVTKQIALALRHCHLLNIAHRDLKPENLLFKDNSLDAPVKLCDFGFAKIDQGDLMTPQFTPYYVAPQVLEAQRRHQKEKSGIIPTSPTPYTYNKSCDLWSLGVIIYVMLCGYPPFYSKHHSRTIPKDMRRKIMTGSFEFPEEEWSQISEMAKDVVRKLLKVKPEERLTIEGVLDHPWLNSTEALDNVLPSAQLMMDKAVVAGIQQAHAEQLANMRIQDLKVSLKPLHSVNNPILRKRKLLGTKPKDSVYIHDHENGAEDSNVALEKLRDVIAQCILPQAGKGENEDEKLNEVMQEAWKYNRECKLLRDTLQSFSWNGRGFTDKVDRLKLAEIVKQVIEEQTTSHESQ

[15] = target: GSK3B (GSK3 beta) (Homo sapiens, UniProt P49841)
[16] = target: AMPK A1/B1/G1 (Homo sapiens, UniProt Q13131)
[17] = target: CDK1/cyclin B (Homo sapiens, UniProt P06493)
[18] = target: BLK (Homo sapiens, UniProt P51451)
[19] = target: CSNK2A2 (CK2 alpha 2) (Homo sapiens, UniProt P19784)
[20] = target: CDK5/p25 (Homo sapiens, UniProt Q00535)
[21] = target: MAPK11 (p38 beta) (Homo sapiens, UniProt Q15759)
MAPK11 (p38 beta), sequence (Q15759 whole entry): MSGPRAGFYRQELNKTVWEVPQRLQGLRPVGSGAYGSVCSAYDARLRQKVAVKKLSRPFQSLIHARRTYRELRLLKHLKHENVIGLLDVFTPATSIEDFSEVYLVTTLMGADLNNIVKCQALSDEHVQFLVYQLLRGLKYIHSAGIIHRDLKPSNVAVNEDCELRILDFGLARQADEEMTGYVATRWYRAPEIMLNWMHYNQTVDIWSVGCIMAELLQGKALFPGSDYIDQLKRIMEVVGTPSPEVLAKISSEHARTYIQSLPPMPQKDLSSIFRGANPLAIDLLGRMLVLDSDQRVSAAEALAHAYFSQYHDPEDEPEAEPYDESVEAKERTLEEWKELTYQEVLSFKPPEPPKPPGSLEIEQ

[22] = target: AMPK (A2/B2/G3) (Homo sapiens, UniProt P54646)
AMPK (A2/B2/G3), sequence (P54646 whole entry): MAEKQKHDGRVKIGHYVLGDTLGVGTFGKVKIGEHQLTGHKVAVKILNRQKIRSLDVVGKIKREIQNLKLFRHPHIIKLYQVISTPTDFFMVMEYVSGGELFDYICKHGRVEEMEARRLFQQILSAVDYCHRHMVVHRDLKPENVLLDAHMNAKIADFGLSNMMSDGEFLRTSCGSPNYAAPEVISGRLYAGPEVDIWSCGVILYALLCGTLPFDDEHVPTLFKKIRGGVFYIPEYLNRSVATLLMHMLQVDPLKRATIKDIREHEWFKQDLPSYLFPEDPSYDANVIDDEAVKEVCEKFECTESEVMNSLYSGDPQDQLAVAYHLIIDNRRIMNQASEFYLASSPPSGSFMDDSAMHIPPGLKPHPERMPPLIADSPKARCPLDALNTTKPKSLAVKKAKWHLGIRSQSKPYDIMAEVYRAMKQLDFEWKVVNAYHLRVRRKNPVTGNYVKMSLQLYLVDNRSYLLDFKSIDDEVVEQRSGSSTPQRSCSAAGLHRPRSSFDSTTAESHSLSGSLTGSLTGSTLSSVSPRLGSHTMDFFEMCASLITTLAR
AMPK (A2/B2/G3), sequence (O43741 whole entry partner): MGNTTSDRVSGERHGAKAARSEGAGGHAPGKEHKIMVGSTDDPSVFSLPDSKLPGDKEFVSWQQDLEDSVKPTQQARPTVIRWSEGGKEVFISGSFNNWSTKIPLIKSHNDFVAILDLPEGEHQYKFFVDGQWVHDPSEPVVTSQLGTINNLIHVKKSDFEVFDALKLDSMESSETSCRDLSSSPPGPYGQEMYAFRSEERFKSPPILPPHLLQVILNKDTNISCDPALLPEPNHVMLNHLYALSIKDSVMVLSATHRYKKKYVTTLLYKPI
AMPK (A2/B2/G3), sequence (Q9UGI9 whole entry partner): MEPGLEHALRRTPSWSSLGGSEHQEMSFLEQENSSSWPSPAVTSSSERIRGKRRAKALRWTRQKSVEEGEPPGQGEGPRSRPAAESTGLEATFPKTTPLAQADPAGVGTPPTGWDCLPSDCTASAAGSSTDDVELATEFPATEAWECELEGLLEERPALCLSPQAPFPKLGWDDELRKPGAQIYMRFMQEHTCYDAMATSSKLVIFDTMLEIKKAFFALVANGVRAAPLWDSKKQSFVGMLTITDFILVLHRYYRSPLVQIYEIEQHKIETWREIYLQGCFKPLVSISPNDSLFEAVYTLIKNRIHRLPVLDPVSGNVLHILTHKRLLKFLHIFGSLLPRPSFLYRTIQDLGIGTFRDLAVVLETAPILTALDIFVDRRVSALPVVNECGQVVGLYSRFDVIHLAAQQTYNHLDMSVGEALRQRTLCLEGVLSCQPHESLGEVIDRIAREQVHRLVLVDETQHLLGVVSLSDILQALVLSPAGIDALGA

[23] = target: SRMS (Srm) (Homo sapiens, UniProt Q9H3Y6)
[24] = target: CSNK1A1 (CK1 alpha 1) (Homo sapiens, UniProt P48729)
[25] = target: CSNK1D (CK1 delta) (Homo sapiens, UniProt P48730)
[26] = target: CSNK1G3 (CK1 gamma 3) (Homo sapiens, UniProt Q9Y6M4)
[27] = target: CSNK1G1 (CK1 gamma 1) (Homo sapiens, UniProt Q9HCP0)
[28] = target: MAPK3 (ERK1) (Homo sapiens, UniProt P27361)

ROCK2, sequence (O75116 whole entry): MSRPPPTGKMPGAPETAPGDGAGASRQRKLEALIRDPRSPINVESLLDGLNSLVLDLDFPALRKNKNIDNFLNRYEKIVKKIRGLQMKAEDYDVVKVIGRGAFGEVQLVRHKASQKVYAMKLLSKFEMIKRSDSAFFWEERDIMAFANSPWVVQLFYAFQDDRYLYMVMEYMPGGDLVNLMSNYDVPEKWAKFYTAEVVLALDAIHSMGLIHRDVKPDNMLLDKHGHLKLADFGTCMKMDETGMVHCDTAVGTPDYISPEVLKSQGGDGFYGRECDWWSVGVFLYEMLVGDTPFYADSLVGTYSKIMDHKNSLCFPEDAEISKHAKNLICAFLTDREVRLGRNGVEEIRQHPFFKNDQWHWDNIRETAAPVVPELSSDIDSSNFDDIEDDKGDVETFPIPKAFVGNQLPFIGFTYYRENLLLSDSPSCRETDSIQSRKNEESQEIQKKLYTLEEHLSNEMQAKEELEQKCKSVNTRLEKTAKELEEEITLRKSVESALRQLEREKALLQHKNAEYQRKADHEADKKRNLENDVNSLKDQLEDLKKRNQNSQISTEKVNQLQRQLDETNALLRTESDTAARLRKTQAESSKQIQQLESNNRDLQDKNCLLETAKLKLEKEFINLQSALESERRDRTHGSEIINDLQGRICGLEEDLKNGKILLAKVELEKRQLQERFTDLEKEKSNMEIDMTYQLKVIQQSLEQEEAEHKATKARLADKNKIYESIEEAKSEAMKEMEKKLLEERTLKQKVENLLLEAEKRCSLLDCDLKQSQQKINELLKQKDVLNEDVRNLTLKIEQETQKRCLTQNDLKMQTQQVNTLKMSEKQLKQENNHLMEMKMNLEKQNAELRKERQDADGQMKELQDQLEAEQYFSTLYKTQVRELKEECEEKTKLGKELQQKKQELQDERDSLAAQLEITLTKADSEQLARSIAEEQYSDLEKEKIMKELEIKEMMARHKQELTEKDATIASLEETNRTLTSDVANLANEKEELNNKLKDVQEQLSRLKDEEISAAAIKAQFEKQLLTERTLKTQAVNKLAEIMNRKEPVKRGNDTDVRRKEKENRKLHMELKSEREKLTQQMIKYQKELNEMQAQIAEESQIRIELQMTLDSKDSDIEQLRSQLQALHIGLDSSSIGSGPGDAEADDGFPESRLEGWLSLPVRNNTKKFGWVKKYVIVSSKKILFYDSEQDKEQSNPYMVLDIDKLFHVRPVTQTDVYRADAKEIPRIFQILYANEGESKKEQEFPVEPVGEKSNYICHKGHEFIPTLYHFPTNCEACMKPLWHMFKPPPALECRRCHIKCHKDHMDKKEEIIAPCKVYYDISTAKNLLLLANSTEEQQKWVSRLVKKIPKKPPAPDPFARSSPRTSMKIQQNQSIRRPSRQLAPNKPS
EGFR (ErbB1), sequence (P00533 whole entry): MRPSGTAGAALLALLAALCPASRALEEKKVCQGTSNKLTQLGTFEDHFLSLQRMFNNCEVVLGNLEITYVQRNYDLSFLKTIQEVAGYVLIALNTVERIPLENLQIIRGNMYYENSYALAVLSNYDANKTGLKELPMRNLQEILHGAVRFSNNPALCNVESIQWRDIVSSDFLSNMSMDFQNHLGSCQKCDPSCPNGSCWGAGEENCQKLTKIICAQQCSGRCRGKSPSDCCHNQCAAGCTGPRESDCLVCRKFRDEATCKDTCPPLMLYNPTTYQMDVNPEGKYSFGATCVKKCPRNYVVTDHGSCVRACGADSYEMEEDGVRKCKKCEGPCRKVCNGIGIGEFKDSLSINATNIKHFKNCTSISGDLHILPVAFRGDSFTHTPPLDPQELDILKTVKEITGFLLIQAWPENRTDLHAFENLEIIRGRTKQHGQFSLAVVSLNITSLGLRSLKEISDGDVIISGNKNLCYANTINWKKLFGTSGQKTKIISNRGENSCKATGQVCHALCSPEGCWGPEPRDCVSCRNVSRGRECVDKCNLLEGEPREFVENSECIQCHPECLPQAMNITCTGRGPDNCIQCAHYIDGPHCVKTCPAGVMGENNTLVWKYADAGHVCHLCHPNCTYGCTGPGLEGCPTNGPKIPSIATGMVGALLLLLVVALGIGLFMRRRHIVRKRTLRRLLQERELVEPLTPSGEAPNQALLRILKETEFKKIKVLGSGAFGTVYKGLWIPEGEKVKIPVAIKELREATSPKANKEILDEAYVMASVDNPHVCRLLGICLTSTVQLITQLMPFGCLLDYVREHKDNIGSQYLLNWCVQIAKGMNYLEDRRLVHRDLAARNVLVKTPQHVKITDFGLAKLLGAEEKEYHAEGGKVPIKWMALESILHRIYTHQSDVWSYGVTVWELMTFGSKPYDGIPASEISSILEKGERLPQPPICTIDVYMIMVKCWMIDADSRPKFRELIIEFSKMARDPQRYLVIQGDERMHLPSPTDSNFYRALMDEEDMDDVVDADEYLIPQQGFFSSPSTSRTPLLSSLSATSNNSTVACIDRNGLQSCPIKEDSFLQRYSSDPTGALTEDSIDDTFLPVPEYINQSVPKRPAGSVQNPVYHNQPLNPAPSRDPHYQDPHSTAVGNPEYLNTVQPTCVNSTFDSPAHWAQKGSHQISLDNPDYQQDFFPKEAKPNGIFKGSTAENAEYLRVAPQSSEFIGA

## COc1ccc2nc3cc(Cl)ccc3c(Nc3cc(CN4CCCC4)c(O)c(CN4CCCC4)c3)c2n1 [Pyronaridine, 4-[(7-Chloro-2-methoxybenzo[b][1,5]naphthyridin-10-yl)amino]-2,6-bis(1-pyrrolidinylmethyl)phenol phosphate (1:4)]
[1]
  inhibition at 1 µM: 0%
[2]
  inhibition at 1 µM: -5%
[3]
  inhibition at 1 µM: -4%
[4]
  inhibition at 1 µM: -2%
[5]
  inhibition at 1 µM: 2%
[6]
  inhibition at 1 µM: -2%
[7]
  inhibition at 1 µM: 1%
[8]
  inhibition at 1 µM: 6%
[9]
  inhibition at 1 µM: -5%
[10]
  inhibition at 1 µM: -1%
[11]
  inhibition at 1 µM: 10%
[12]
  inhibition at 1 µM: -21%
[13]
  inhibition at 1 µM: -4%
[14]
  inhibition at 1 µM: 3%
[15]
  inhibition at 1 µM: 8%
[16]
  inhibition at 1 µM: 5%
[17]
  inhibition at 1 µM: 5%
[18]
  inhibition at 1 µM: 3%
[19]
  inhibition at 1 µM: 5%
[20]
  inhibition at 1 µM: 0%
[21]
  inhibition at 1 µM: -8%
[22]
  inhibition at 1 µM: 2%
[23]
  inhibition at 1 µM: 2%
[24]
  inhibition at 1 µM: 5%
[25]
  inhibition at 1 µM: 5%
[26]
  inhibition at 1 µM: 2%
[27]
  inhibition at 1 µM: 0%
[28]
  inhibition at 1 µM: 6%
